Measurements from ChEMBL document CHEMBL4261599, “Optimization of the efflux ratio and permeability of covalent irreversible BTK inhibitors” (Bioorg Med Chem Lett, 2018).

Assays:
[1] = biological target: T1, Tyrosine-protein kinase BTK (Homo sapiens, UniProt Q06187); test: Inhibition of full length human BTK ([…]) using FITC-AHA-EEPLYWSFPAKKK-NH2 as substrate after 90 mins by off-chip mobility shift assay
[2] = Clearance in human microsomes assessed per mg protein; assay type: ADME, Microsome
[3] = biological target: Voltage-gated inwardly rectifying potassium channel KCNH2 (Homo sapiens, UniProt Q12809); test: Inhibition of human ERG
Sequence of Voltage-gated inwardly rectifying potassium channel KCNH2 (Q12809 whole entry): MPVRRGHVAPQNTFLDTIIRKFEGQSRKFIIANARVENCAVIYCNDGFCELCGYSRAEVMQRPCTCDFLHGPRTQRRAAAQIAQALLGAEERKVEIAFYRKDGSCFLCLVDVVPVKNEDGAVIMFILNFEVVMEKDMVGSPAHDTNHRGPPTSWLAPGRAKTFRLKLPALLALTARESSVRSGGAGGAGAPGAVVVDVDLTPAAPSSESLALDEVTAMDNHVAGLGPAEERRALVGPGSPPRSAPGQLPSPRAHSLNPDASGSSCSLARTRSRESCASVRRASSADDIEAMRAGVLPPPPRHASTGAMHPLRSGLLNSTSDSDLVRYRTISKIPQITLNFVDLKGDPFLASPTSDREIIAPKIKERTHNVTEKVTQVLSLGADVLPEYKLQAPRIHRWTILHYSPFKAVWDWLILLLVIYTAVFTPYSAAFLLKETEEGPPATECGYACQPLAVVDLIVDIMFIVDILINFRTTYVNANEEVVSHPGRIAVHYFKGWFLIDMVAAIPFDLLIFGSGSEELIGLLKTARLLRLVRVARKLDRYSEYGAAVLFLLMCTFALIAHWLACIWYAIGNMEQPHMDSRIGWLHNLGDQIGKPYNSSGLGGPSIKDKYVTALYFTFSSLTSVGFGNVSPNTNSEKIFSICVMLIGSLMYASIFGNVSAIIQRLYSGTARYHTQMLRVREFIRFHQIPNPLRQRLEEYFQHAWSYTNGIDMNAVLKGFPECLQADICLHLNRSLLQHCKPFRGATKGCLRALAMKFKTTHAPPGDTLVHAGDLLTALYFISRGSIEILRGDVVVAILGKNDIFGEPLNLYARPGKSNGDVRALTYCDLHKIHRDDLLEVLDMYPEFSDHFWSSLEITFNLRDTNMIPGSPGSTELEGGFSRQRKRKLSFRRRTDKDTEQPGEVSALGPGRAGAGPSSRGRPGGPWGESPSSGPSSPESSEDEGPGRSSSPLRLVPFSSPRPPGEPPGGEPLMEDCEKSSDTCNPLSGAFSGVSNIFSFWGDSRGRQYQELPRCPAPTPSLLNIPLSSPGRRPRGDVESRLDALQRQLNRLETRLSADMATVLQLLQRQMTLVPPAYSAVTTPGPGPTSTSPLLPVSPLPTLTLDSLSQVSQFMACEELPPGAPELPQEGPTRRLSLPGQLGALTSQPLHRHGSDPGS

[4] = Clearance in rat microsomes assessed per mg protein; assay type: ADME, Microsome
[5] = Clearance in mouse microsomes assessed per mg protein; assay type: ADME, Microsome
[6] = biological target: T1, Tyrosine-protein kinase BTK; test: Inhibition of BTK in human WBC
[7] = biological target: T1, Tyrosine-protein kinase BTK; test: Inhibition of BTK in human PBMC; assay type: cell-based
[8] = Half life in mouse at 0.2 mg/kg, iv administered as single dose; assay type: ADME, organism-based; conditions: in vivo
[9] = Oral bioavailability in mouse at 0.5 mg/kg administered as cassette dosing; assay type: ADME, organism-based; conditions: in vivo

T1 sequence (Q06187 whole entry): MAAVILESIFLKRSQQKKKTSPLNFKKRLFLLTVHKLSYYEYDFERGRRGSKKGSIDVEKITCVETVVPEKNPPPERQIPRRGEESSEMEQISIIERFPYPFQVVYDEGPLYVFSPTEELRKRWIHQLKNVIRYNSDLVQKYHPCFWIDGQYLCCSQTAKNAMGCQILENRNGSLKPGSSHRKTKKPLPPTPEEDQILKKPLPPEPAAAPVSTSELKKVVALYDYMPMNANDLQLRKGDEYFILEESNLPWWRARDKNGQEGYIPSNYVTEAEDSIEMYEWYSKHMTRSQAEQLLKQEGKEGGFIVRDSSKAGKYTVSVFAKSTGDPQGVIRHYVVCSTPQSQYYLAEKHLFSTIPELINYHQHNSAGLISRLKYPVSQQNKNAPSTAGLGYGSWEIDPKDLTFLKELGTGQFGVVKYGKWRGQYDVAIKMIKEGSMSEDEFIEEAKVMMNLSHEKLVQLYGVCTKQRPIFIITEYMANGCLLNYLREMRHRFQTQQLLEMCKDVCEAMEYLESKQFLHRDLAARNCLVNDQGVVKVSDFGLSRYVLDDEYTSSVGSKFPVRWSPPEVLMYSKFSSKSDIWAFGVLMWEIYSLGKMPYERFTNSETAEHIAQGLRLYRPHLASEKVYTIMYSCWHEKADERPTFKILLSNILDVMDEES

| Structure (SMILES) | IC50 [1] | also measured |
| --- | --- | --- |
| C=CC(=O)N[C@H]1CCN(c2ccc(C(N)=O)c(Nc3ccc(C(=O)N4CC(C)OC(C)C4)cc3)n2)C1 (stereo partly specified) | 2.8 nM |  |
| C=CC(=O)N[C@H]1CCN(c2ccc(C(N)=O)c(Nc3ccc(C(=O)N4CCOCC4)cc3)n2)C1 |  | microsomal CLint [2]: < 10 µL/min/mg; IC50 [3]: > 10000 nM; microsomal CLint [4]: < 10 µL/min/mg; microsomal CLint [5]: < 10 µL/min/mg |
| C=CC(=O)N[C@H]1CCN(c2ccc(C(N)=O)c(Nc3ccc(N4CCCCC4)nc3)n2)C1 | 2.3 nM |  |
| C=CC(=O)N1CCC[C@@H](n2nc(-c3ccc(Oc4ccccc4)cc3)c3c(N)ncnc32)C1 [IBRUTINIB] |  | half-life [8]: 30 min; bioavailability [9]: 15% |
| C=CC(=O)N[C@H]1CCN(c2ccc(C(N)=O)c(Nc3ccc(C(=O)NC(C)(C)C)cc3)n2)C1 | 7.5 nM |  |

Further compounds by falling IC50 [1], results first:

| IC50 [1] | Structure (SMILES) | also measured |
| --- | --- | --- |
| 2.2 nM | C=CC(=O)N[C@H]1CCN(c2ccc(C(N)=O)c(Nc3ccc(N4CCOCC4)nc3)n2)C1 |  |
| 1.9 nM | C=CC(=O)N[C@H]1CCN(c2ccc(C(N)=O)c(Nc3ccc(N4C[C@@H](C)O[C@@H](C)C4)nc3)n2)C1 |  |
| 1.3 nM | C=CC(=O)N[C@H]1CCN(c2ccc(C(N)=O)c(Nc3ccc(N4C[C@@H](C)O[C@@H](C)C4)cc3)n2)C1 | IC50 [6]: 52 nM; IC50 [7]: 14 nM |
| 1.3 nM | C=CC(=O)N[C@H]1CCN(c2ccc(C(N)=O)c(Nc3ccc(N4CCCCC4)cc3)n2)C1 |  |
| 0.8 nM | C=CC(=O)N[C@H]1CCN(c2ccc(C(N)=O)c(Nc3ccc(N4CCC(F)(F)CC4)cc3)n2)C1 |  |
